pIC50: −log10 of the molar value. “Also recorded” adds a separate entry of the source.
Assays:
[1] = Longitudinal PK/PD analysis in A549 xenograft mouse model (plasma and tumor PK); type: in vivo; settings: 75 mg/kg single oral dose
Protocol: In this study, p-SMAD2 (Ser465/Ser467) and a housekeeping gene (GAPDH) were measured at six timepoints from zero (established using vehicle-treated animals) up to twenty-four hours post dose for a single drug dose of seventy-five milligrams per kilogram per subject (three subjects per dosing group).
For this study, xenografts were prepared and implanted in mice as follows. At five weeks of age, female athymic nude mice (purchased from Charles River) were injected with approximately 3.2 million A549 cells (ATCC, CCL-185). Cells were harvested and resuspended in plain RPMI media (no phenol red added) and Matrigel (Corning 356237) at a one-to-one ratio, and two hundred-microliters of the cell suspension were injected into the right hind flank of each mouse. Tumors were measured every three days by caliper, and as tumors reached an average of ninety millimeters cubed, mice were randomized in groups of three. Each of the test compounds (Ex-10 and Ex-11) was resuspended in 1-methyl-2-pyrrolidinone (Sigma, 494496) (10%) plus 20% Solutol (Sigma 42966) in water (90%). The drug suspensions were sonicated for fifteen minutes to generate a fine particle suspension before being given to the test subjects. Subjects were dosed (per oral gavage) with the suspension. A vehicle control group with three mice was used to establish the baseline and timepoint zero of phospho-SMAD-2 in the tumor xenograft. The test compounds were administered to the respective subject groups at seventy-five milligrams per kilogram. Samples were obtained post administration of test compounds at 20 minutes, one hour, two hours, four hours, and twenty-four hours. Tumors were harvested, snap frozen and stored at negative eighty degrees Celsius until further processing. Plasma was collected from all animals by collecting whole blood via cardiac puncture, followed by centrifugation in tubes containing EDTA (BD, microtainer tubes, 365974). A group of three mice receiving vehicle only served as the zero timepoint for both drug groups. The phospho-SMAD-2 levels were determined using the Bio-Plex Pro™ Phospho-Smad2 (Ser465/Ser467) Set (BioRad 171V50019M). The phospho-SMAD-2 levels were normalized to GAPDH (MILLIPLEX MAP GAPDH Total Magnetic Bead MAPmate™, Millipore 46-667MAG) levels from each sample. All analytes were analyzed in a multiplex fashion with the Bio-Plex Pro Cell Signaling Reagent Kit (BioRad 171304006M). Frozen tumor samples (fifteen to thirty milligrams) were lysed in 100 μl lysis buffer, processed in a bead mill tube, and centrifuged. The resulting lysate was used at 1:50 dilution for the assay according to the manufacturer's instructions. Bead suspension was analyzed using the Luminex system (MAGPIX).

[2] = system: ES-2-luc cells; test: ES-2 survival study (ovarian cancer xenograft); type: in vivo, mouse; settings: 150 mg/Kg twice a day, P.O.
Text: Ovarian cancer is still associated with poor prognosis and remains among the leading causes of oncology-related deaths in females. High recurrence rates, resistance to chemotherapy and meager outcome highlight the need for improved therapies that stem from understanding the complex and multifactorial etiology of ovarian malignancies. TGF-01 signaling within tumor microenvironment regulates important steps in ovarian cancer progression such as epithelial to mesenchymal transition, dissemination, and metastasis. Inhibition of TGF-01 signaling pathway has shown a potential as a pharmaceutical target in ovarian malignancies. ES-2 ovarian cancer mouse xenograft model was used to test efficacy of EX-11 in ovarian cancer, as measured by improvement in survival.
Sixteen-week-old female athymic nude mice were injected with two million ES-2-luc cells. […]
Mortality was recorded for animals found dead in the cage, and for the animals sacrificed based on humane end point based on main three criteria—loss of mobility and response, wasting with pronounced ascites fluid buildup, and palpable drop in body temperature (animals were assessed as cold to touch when handled in gloves).
On study day 22, the remaining surviving animals in the vehicle group were determined moribund, and the study was terminated based on humane end point criteria. […]

[3] = system: KGN cells (FOXL2 C134W); test: FOXL2 cell viability assay (Cell Titer Glo), KGN; type: cell-based, human
Protocol: (§1) EX-11 was submitted to a cell viability assay in KGN and COV434 cell lines. KGN cells are derived from FOXL2^C134W AGCT of a person with a recurrent metastatic GCT. COV434 cells are derived from FOXL2WT JGCT of a person with a recurrent metastatic GCT. The cells were seeded in triplicate in 96 well culture plates and treated with nine, 3-fold dilutions of EX-11 or DMSO for 6 days (KGN) or 3 days (Cov434), which represented 3 cell doublings, respectively. Viability was assessed by Cell Titer Glo (Promega).

[4] = system: COV434 cells (wild-type FOXL2); test: FOXL2 cell viability assay (Cell Titer Glo), COV434; type: cell-based; settings: Homo sapiens, 72 h, 3 days
Protocol: as §1

[5] = system: pSmad2 in KGN cells; test: pSmad2 Luminex assay in KGN cell line; type: cell-based; settings: 2 hours, read-out: pSmad2 pathway inhibition
Protocol: KGN cells were incubated with three 10-fold dilutions of EX-11 or DMSO for 2 hours. Cells were harvested and lysed, and protein concentration was quantified by BCA. 10 μg of total protein was added to the assay plate provided in the Milliplex TGFβ 6-plex kit with GAPDH MapMate beads, and the manufacturer's protocol was followed. Data was collected on the MagPix Xmap (Luminex).

[6] = system: HLA class I expression in KGN cells; test: HLA expression in KGN cell line (flow cytometry); type: cell-based, human; settings: 72 hours
Protocol: KGN cells were treated with 30 nM EX-11, 300 nM EX-11 or DMSO in the absence or presence of 1 ng/mL TGFβ for 72 hours. Cells were then washed, collected and incubated in the dark at 4° C. for 1 hour with a pan HLA class I antibody conjugated to PE (BD Pharmingen cat #560168). The cells were washed and analyzed by flow cytometry on an Attune N×T.

[7] = system: Cloudman S91 melanoma; test: Cloudman S91 melanoma syngeneic study; settings: single agents
Protocol: The objective of this study was to evaluate preclinically the in vivo therapeutic efficacy of EX-11+/−anti-PD-1 therapy for the treatment of subcutaneous Cloudman S91 melanoma model in DBA/2 mice.
Female, DBA/2 mice (aged 7-9 weeks) were inoculated subcutaneously in the right flank region with Cloudman S91 melanoma cells (2×10^5) in 0.1 ml of PBS. Once the mean tumor size reached approximately 100 mm^3 (day 19), 60 mice were randomized to 6 treatment arms (10 mice per arm).
The anti-PD-1 inhibitor used in this study was a product of Crownbio/OEM (Cat #: CVP033, Lot #: 0920L765). The vehicle for the anti-BD-1 inhibitor was PBS. The drug was injected intraperitoneally (i.p.), bi-weekly (BIW) for 3 weeks. The vehicle for EX-11 was 1000 tween-20, 900% ddH2O. The vehicle used for EX-11 was also used for the “Vehicle” arm of the study. EX-11 and the vehicle were delivered via oral gavage (p.o.), bi-daily (BID) for 21 days.
Body weights and tumor volumes were measured 3 times per week. Tumor volumes were measured in two dimensions using a caliper, and the volume was expressed in mm^3 using the formula: V=(L×W×W)/2, where V is tumor volume, L is tumor length (the longest tumor dimension) and W is tumor width (the longest tumor dimension perpendicular to L).
The study was terminated 50 days post-inoculation. […]

SMILES | drug concentration in plasma and tumor over time [1] | drug in plasma and tumor at 24 hours post drug administration [1] | time of maximum drug concentration in plasma and tumor [1] | overall survival compared with vehicle-treated animals [2] | sensitivity of KGN cells relative to COV434 cells [3] [fold] | pIC50 ([3]; Homo sapiens, 144 h, KGN cells, 6 days) | pIC50 [4] | inhibition at 0.01 µM ([5]; Homo sapiens, 10 nM) [%] | inhibition at 0.1 µM ([5]; Homo sapiens, 100 nM) [%] | inhibition at 1 µM ([5]; Homo sapiens, 1,000 nM) [%] | HLA class I expression repressed by TGFβ stimulation ([6]; 30 nM, 300 nM + 1 ng/mL TGFβ) | increase of HLA class I expression ([6]; absence of TGFβ) | survival compared with the vehicle control [7]
Cc1cccc2c(Nc3ccnc(Nc4ccc(N5CCOCC5)cc4)n3)cnnc12 [EX-10, N4-(8-methylcinnolin-4-yl)-N2-(4-morpholino-phenyl)-pyrimidine-2,4-diamine] | spiked 20 minutes to 1-hour post drug administration and stayed high up to 4 hours post drug administration | cleared out of the system completely | – | – | – | – | – | – | – | – | – | – | –
Cc1cccc2c(Nc3ccnc(Nc4cccc(N5CCOCC5)c4)n3)cnnc12 [EX-11, N4-(8-methylcinnolin-4-yl)-N2-(3-morpholinophenyl)pyrimidine-2,4-diamine] | – | cleared out of the system | around 4 hours | significantly increased; also recorded: significantly improved | > 70 | 6.85 | < 5.00 | 17 | 74 | 97 | reversed | up to 2 fold | did not exhibit an increase in survival
